From PubChem BioAssay (NCI)
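Following 48 hours of exposure in 96-well plates, responses at five concentrations were used to interpolate endpoints linearly. Abbreviation: GI50, concentration required for 50% inhibition of growth. TGI: total growth inhibition.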

Tests used:
Experiment in all cases: DTP human tumour cell line panel, 48 h
A549 NSCLC = tested on: A549 NSCLC
SW-620 colon = tested on: SW-620 colon
MALME-3M melanoma = tested on: MALME-3M melanoma
SNB-75 CNS = tested on: SNB-75 CNS
DU-145 prostate = tested on: DU-145 prostate
RPMI-8226 leukemia = tested on: RPMI-8226 leukemia
PC-3 prostate = tested on: PC-3 prostate
SF-295 CNS = tested on: SF-295 CNS
HCC-2998 colon = tested on: HCC-2998 colon
M14 melanoma = tested on: M14 melanoma
U251 CNS = tested on: U251 CNS
HCT-15 colon = tested on: HCT-15 colon
OVCAR-5 ovarian = tested on: OVCAR-5 ovarian
SN12C renal = tested on: SN12C renal
SF-539 CNS = tested on: SF-539 CNS
SK-MEL-2 melanoma = tested on: SK-MEL-2 melanoma
HS 578T breast = tested on: HS 578T breast
UO-31 renal = tested on: UO-31 renal
CCRF-CEM leukemia = tested on: CCRF-CEM leukemia
HT29 colon = tested on: HT29 colon
EKVX NSCLC = tested on: EKVX NSCLC
MDA-MB-231 breast = tested on: MDA-MB-231 breast
A498 renal = tested on: A498 renal
KM12 colon = tested on: KM12 colon
UACC-62 melanoma = tested on: UACC-62 melanoma
SK-OV-3 ovarian = tested on: SK-OV-3 ovarian
COLO 205 colon = tested on: COLO 205 colon
NCI-H522 lung = tested on: NCI-H522 lung
SF-268 CNS = tested on: SF-268 CNS
LOX IMVI melanoma = tested on: LOX IMVI melanoma
SK-MEL-5 melanoma = tested on: SK-MEL-5 melanoma
BT-549 breast = tested on: BT-549 breast
K-562 leukemia = tested on: K-562 leukemia
HL-60(TB) leukemia = tested on: HL-60(TB) leukemia
RXF 393 renal = tested on: RXF 393 renal
TK-10 renal = tested on: TK-10 renal
NCI-H226 lung = tested on: NCI-H226 lung
NCI/ADR-RES ovarian = tested on: NCI/ADR-RES ovarian
MDA-MB-435 = tested on: MDA-MB-435
SR leukemia = tested on: SR leukemia
OVCAR-3 ovarian = tested on: OVCAR-3 ovarian
SK-MEL-28 melanoma = tested on: SK-MEL-28 melanoma
ACHN renal = tested on: ACHN renal
HCT-116 colon = tested on: HCT-116 colon
HOP-62 NSCLC = tested on: HOP-62 NSCLC
OVCAR-8 ovarian = tested on: OVCAR-8 ovarian
OVCAR-4 ovarian = tested on: OVCAR-4 ovarian
HOP-92 NSCLC = tested on: HOP-92 NSCLC
UACC-257 melanoma = tested on: UACC-257 melanoma
IGROV1 ovarian = tested on: IGROV1 ovarian
SNB-19 CNS = tested on: SNB-19 CNS
NCI-H23 lung = tested on: NCI-H23 lung
CAKI-1 renal = tested on: CAKI-1 renal
NCI-H460 lung = tested on: NCI-H460 lung
T-47D breast = tested on: T-47D breast
786-0 renal = tested on: 786-0 renal
MCF7 breast = tested on: MCF7 breast
MOLT-4 leukemia = tested on: MOLT-4 leukemia

Molecule `CCCCCCCC(=O)Nc1nc2[nH]c(CN3CCN(Cc4cccc(I)c4)CC3)c(CN3CCN(Cc4cccc(I)c4)CC3)c2c(=O)[nH]1` has a GI50 (A549 NSCLC) of 0.989 µM, a TGI (A549 NSCLC) of 1.91 µM and a GI50 (SW-620 colon) of 0.848 µM. It also gave a TGI (SW-620 colon) of 1.63 µM, a GI50 (MALME-3M melanoma) of 0.866 µM and a TGI (MALME-3M melanoma) of 1.7 µM. It also gave a GI50 (SNB-75 CNS) of 0.691 µM, a TGI (SNB-75 CNS) of 1.35 µM and a GI50 (DU-145 prostate) of 0.913 µM. It also gave a TGI (DU-145 prostate) of 1.73 µM, a GI50 (RPMI-8226 leukemia) of 0.531 µM and a TGI (RPMI-8226 leukemia) of 1.81 µM. The GI50 (PC-3 prostate) was 0.837 µM, the TGI (PC-3 prostate) was 1.63 µM and the GI50 (SF-295 CNS) was 0.843 µM. It also gave a TGI (SF-295 CNS) of 1.55 µM, a GI50 (HCC-2998 colon) of 0.823 µM and a TGI (HCC-2998 colon) of 1.54 µM. It also gave a GI50 (M14 melanoma) of 0.882 µM, a TGI (M14 melanoma) of 1.77 µM and a GI50 (U251 CNS) of 0.923 µM. For the same molecule, the TGI (U251 CNS) was 1.8 µM, the GI50 (HCT-15 colon) was 0.812 µM and the TGI (HCT-15 colon) was 1.54 µM. It also gave a GI50 (OVCAR-5 ovarian) of 0.852 µM, a TGI (OVCAR-5 ovarian) of 1.57 µM and a GI50 (SN12C renal) of 0.916 µM. For the same molecule, the TGI (SN12C renal) was 1.75 µM, the GI50 (SF-539 CNS) was 0.88 µM and the TGI (SF-539 CNS) was 1.61 µM. The GI50 (SK-MEL-2 melanoma) was 0.97 µM, the TGI (SK-MEL-2 melanoma) was 2.05 µM and the GI50 (HS 578T breast) was 0.882 µM. The TGI (HS 578T breast) was 1.95 µM, the GI50 (UO-31 renal) was 0.717 µM and the TGI (UO-31 renal) was 1.41 µM. The GI50 (CCRF-CEM leukemia) was 1.25 µM, the TGI (CCRF-CEM leukemia) was 3.22 µM and the GI50 (HT29 colon) was 0.998 µM. The TGI (HT29 colon) was 2.13 µM, the GI50 (EKVX NSCLC) was 0.835 µM and the TGI (EKVX NSCLC) was 1.67 µM. It also gave a GI50 (MDA-MB-231 breast) of 0.875 µM, a TGI (MDA-MB-231 breast) of 1.65 µM and a GI50 (A498 renal) of 0.8 µM. For the same molecule, the TGI (A498 renal) was 1.62 µM, the GI50 (KM12 colon) was 0.906 µM and the TGI (KM12 colon) was 1.75 µM. For the same molecule, the GI50 (UACC-62 melanoma) was 0.901 µM, the TGI (UACC-62 melanoma) was 1.66 µM and the GI50 (SK-OV-3 ovarian) was 0.916 µM. For the same molecule, the TGI (SK-OV-3 ovarian) was 1.7 µM, the GI50 (COLO 205 colon) was 0.972 µM and the TGI (COLO 205 colon) was 1.97 µM. It also gave a GI50 (NCI-H522 lung) of 0.901 µM, a TGI (NCI-H522 lung) of 1.95 µM and a GI50 (SF-268 CNS) of 0.829 µM. The TGI (SF-268 CNS) was 1.65 µM, the GI50 (LOX IMVI melanoma) was 0.762 µM and the TGI (LOX IMVI melanoma) was 1.44 µM. For the same molecule, the GI50 (SK-MEL-5 melanoma) was 0.973 µM, the TGI (SK-MEL-5 melanoma) was 1.9 µM and the GI50 (BT-549 breast) was 0.885 µM. It also gave a TGI (BT-549 breast) of 1.83 µM, a GI50 (K-562 leukemia) of 0.455 µM and a TGI (K-562 leukemia) of 10.8 µM. The GI50 (HL-60(TB) leukemia) was 0.924 µM, the TGI (HL-60(TB) leukemia) was 2.27 µM and the GI50 (RXF 393 renal) was 0.78 µM. It also gave a TGI (RXF 393 renal) of 1.49 µM, a GI50 (TK-10 renal) of 0.828 µM and a TGI (TK-10 renal) of 1.62 µM. It also gave a GI50 (NCI-H226 lung) of 1.16 µM, a TGI (NCI-H226 lung) of 2.59 µM and a GI50 (NCI/ADR-RES ovarian) of 0.882 µM. For the same molecule, the TGI (NCI/ADR-RES ovarian) was 1.74 µM, the GI50 (MDA-MB-435) was 0.823 µM and the TGI (MDA-MB-435) was 1.55 µM. For the same molecule, the GI50 (SR leukemia) was 0.238 µM, the TGI (SR leukemia) was 1.06 µM and the GI50 (OVCAR-3 ovarian) was 0.879 µM. For the same molecule, the TGI (OVCAR-3 ovarian) was 1.62 µM, the GI50 (SK-MEL-28 melanoma) was 0.937 µM and the TGI (SK-MEL-28 melanoma) was 1.7 µM. It also gave a GI50 (ACHN renal) of 0.892 µM, a TGI (ACHN renal) of 1.61 µM and a GI50 (HCT-116 colon) of 0.848 µM. It also gave a TGI (HCT-116 colon) of 1.59 µM, a GI50 (HOP-62 NSCLC) of 0.936 µM and a TGI (HOP-62 NSCLC) of 2.06 µM. For the same molecule, the GI50 (OVCAR-8 ovarian) was 1.04 µM, the TGI (OVCAR-8 ovarian) was 2.25 µM and the GI50 (OVCAR-4 ovarian) was 0.841 µM. The TGI (OVCAR-4 ovarian) was 1.62 µM, the GI50 (HOP-92 NSCLC) was 0.668 µM and the TGI (HOP-92 NSCLC) was 1.4 µM. It also gave a GI50 (UACC-257 melanoma) of 1.14 µM, a TGI (UACC-257 melanoma) of 2.44 µM and a GI50 (IGROV1 ovarian) of 0.836 µM. It also gave a TGI (IGROV1 ovarian) of 1.67 µM, a GI50 (SNB-19 CNS) of 0.858 µM and a TGI (SNB-19 CNS) of 1.62 µM. It also gave a GI50 (NCI-H23 lung) of 0.92 µM, a TGI (NCI-H23 lung) of 1.86 µM and a GI50 (CAKI-1 renal) of 0.816 µM. For the same molecule, the TGI (CAKI-1 renal) was 1.49 µM, the GI50 (NCI-H460 lung) was 0.925 µM and the TGI (NCI-H460 lung) was 1.76 µM. It also gave a GI50 (T-47D breast) of 0.993 µM, a TGI (T-47D breast) of 2.18 µM and a GI50 (786-0 renal) of 0.793 µM. For the same molecule, the TGI (786-0 renal) was 1.5 µM, the GI50 (MCF7 breast) was 0.793 µM and the TGI (MCF7 breast) was 1.51 µM. It also gave a GI50 (MOLT-4 leukemia) of 0.934 µM and a TGI (MOLT-4 leukemia) of 2.59 µM.
